Source: PubChem BioAssay (NCI)
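How tested: cells in 96-well plates exposed to compound for 48 hours at five concentrations. TGI denotes the concentration required for complete inhibition of growth.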

How the values were obtained:
Experiment in all cases: NCI anticancer screen, dose series, 48 h
[1] = system: ACHN renal
[2] = system: RXF 393 renal
[3] = system: HL-60(TB) leukemia
[4] = system: SF-268 CNS
[5] = system: KM12 colon
[6] = system: HOP-18 NSCLC
[7] = system: MALME-3M melanoma
[8] = system: K-562 leukemia
[9] = system: SF-539 CNS
[10] = system: CCRF-CEM leukemia
[11] = system: OVCAR-8 ovarian
[12] = system: M19-MEL melanoma
[13] = system: SK-MEL-28 melanoma
[14] = system: TK-10 renal
[15] = system: UO-31 renal
[16] = system: M14 melanoma
[17] = system: NCI-H522 lung
[18] = system: RPMI-8226 leukemia
[19] = system: 786-0 renal
[20] = system: UACC-257 melanoma
[21] = system: SW-620 colon
[22] = system: U251 CNS
[23] = system: SN12C renal
[24] = system: LOX IMVI melanoma
[25] = system: HCT-15 colon
[26] = system: SNB-75 CNS
[27] = system: IGROV1 ovarian
[28] = system: HCC-2998 colon
[29] = system: OVCAR-5 ovarian
[30] = system: SF-295 CNS
[31] = system: LXFL 529 NSCLC
[32] = system: MOLT-4 leukemia
[33] = system: EKVX NSCLC
[34] = system: HOP-92 NSCLC
[35] = system: KM20L2 colon
[36] = system: A498 renal
[37] = system: SNB-19 CNS
[38] = system: A549 NSCLC
[39] = system: XF 498 CNS
[40] = system: SK-MEL-2 melanoma
[41] = system: NCI-H23 lung
[42] = system: HCT-116 colon
[43] = system: SR leukemia
[44] = system: DLD-1 colon
[45] = system: UACC-62 melanoma
[46] = system: OVCAR-3 ovarian
[47] = system: SK-OV-3 ovarian
[48] = system: HT29 colon
[49] = system: SK-MEL-5 melanoma
[50] = system: HOP-62 NSCLC
[51] = system: OVCAR-4 ovarian
[52] = system: DMS 273 small cell lung
[53] = system: NCI-H460 lung
[54] = system: CAKI-1 renal
[55] = system: COLO 205 colon
[56] = system: NCI-H226 lung
[57] = system: SNB-78 CNS
[58] = system: DMS 114 small cell lung
[59] = system: RXF-631 renal

SMILES: CCCCCCCCCCCCN(O)C(=O)c1ccccc1
- TGI [1]: > 100 µM
- TGI [2]: > 100 µM
- TGI [3]: 54.8 µM
- TGI [4]: 72.2 µM
- TGI [5]: > 100 µM
- TGI [6]: > 100 µM
- TGI [7]: 60.7 µM
- TGI [8]: > 100 µM
- TGI [9]: 63.6 µM
- TGI [10]: > 100 µM
- TGI [11]: 74.3 µM
- TGI [12]: > 100 µM
- TGI [13]: > 100 µM
- TGI [14]: > 100 µM
- TGI [15]: > 100 µM
- TGI [16]: 82.2 µM
- TGI [17]: > 100 µM
- TGI [18]: > 100 µM
- TGI [19]: 49.2 µM
- TGI [20]: 49.1 µM
- TGI [21]: > 100 µM
- TGI [22]: 29.8 µM
- TGI [23]: 71.4 µM
- TGI [24]: > 100 µM
- TGI [25]: > 100 µM
- TGI [26]: 82.7 µM
- TGI [27]: > 100 µM
- TGI [28]: > 100 µM
- TGI [29]: 82.2 µM
- TGI [30]: > 100 µM
- TGI [31]: > 100 µM
- TGI [32]: > 100 µM
- TGI [33]: 84.2 µM
- TGI [34]: 71.8 µM
- TGI [35]: > 100 µM
- TGI [36]: 88.3 µM
- TGI [37]: > 100 µM
- TGI [38]: > 100 µM
- TGI [39]: > 100 µM
- TGI [40]: > 100 µM
- TGI [41]: 52.2 µM
- TGI [42]: > 100 µM
- TGI [43]: > 100 µM
- TGI [44]: > 100 µM
- TGI [45]: > 100 µM
- TGI [46]: > 100 µM
- TGI [47]: 92.1 µM
- TGI [48]: > 100 µM

SMILES: CC(=O)Nc1ccc(C(=O)NN2C(=O)C(Cl)C2c2ccccc2O)cc1 (centres undefined)
- TGI [49]: > 100 µM
- TGI [50]: 41.6 µM
- TGI [1]: > 100 µM
- TGI [2]: 61 µM
- TGI [3]: > 100 µM
- TGI [4]: > 100 µM
- TGI [7]: > 100 µM
- TGI [8]: > 100 µM
- TGI [9]: > 100 µM
- TGI [10]: > 100 µM
- TGI [11]: > 100 µM
- TGI [13]: > 100 µM
- TGI [14]: > 100 µM
- TGI [15]: > 100 µM
- TGI [16]: > 100 µM
- TGI [17]: > 100 µM
- TGI [19]: > 100 µM
- TGI [51]: > 100 µM
- TGI [20]: > 100 µM
- TGI [21]: > 100 µM
- TGI [52]: > 100 µM
- TGI [22]: > 100 µM
- TGI [23]: > 100 µM
- TGI [24]: 48.9 µM
- TGI [25]: > 100 µM
- TGI [26]: 78.9 µM
- TGI [53]: > 100 µM
- TGI [27]: > 100 µM
- TGI [29]: > 100 µM
- TGI [30]: > 100 µM
- TGI [31]: > 100 µM
- TGI [33]: > 100 µM
- TGI [34]: > 100 µM
- TGI [35]: > 100 µM
- TGI [36]: > 100 µM
- TGI [37]: > 100 µM
- TGI [54]: > 100 µM
- TGI [55]: > 100 µM
- TGI [38]: > 100 µM
- TGI [39]: > 100 µM
- TGI [40]: > 100 µM
- TGI [41]: 78.3 µM
- TGI [42]: > 100 µM
- TGI [44]: > 100 µM
- TGI [45]: > 100 µM
- TGI [46]: 90.3 µM
- TGI [47]: > 100 µM
- TGI [56]: > 100 µM
- TGI [48]: > 100 µM

SMILES: CCOC(=O)c1ccc(-n2c(SCC)nc3sc(C)c(C)c3c2=O)cc1
- TGI [49]: > 100 µM
- TGI [50]: > 100 µM
- TGI [1]: > 100 µM
- TGI [2]: > 100 µM
- TGI [3]: > 100 µM
- TGI [4]: > 100 µM
- TGI [5]: > 100 µM
- TGI [6]: > 100 µM
- TGI [7]: > 100 µM
- TGI [8]: > 100 µM
- TGI [9]: > 100 µM
- TGI [10]: > 100 µM
- TGI [11]: > 100 µM
- TGI [13]: > 100 µM
- TGI [14]: > 100 µM
- TGI [15]: > 100 µM
- TGI [16]: > 100 µM
- TGI [17]: > 100 µM
- TGI [18]: > 100 µM
- TGI [19]: > 100 µM
- TGI [51]: > 100 µM
- TGI [20]: > 100 µM
- TGI [21]: > 100 µM
- TGI [52]: > 100 µM
- TGI [22]: > 100 µM
- TGI [23]: > 100 µM
- TGI [24]: > 100 µM
- TGI [25]: > 100 µM
- TGI [26]: > 100 µM
- TGI [53]: > 100 µM
- TGI [27]: > 100 µM
- TGI [28]: > 100 µM
- TGI [29]: > 100 µM
- TGI [30]: > 100 µM
- TGI [33]: > 100 µM
- TGI [34]: > 100 µM
- TGI [35]: > 100 µM
- TGI [36]: > 100 µM
- TGI [37]: > 100 µM
- TGI [57]: > 100 µM
- TGI [54]: > 100 µM
- TGI [58]: > 100 µM
- TGI [55]: > 100 µM
- TGI [38]: > 100 µM
- TGI [39]: > 100 µM
- TGI [40]: > 100 µM
- TGI [41]: > 100 µM
- TGI [42]: > 100 µM
- TGI [43]: > 100 µM
- TGI [44]: > 100 µM
- TGI [45]: > 100 µM
- TGI [46]: > 100 µM
- TGI [47]: > 100 µM
- TGI [56]: > 100 µM
- TGI [48]: > 100 µM

SMILES: O=C(O)C12CCCC(CCC1)C2
- TGI [49]: > 100 µM
- TGI [50]: > 100 µM
- TGI [1]: > 100 µM
- TGI [2]: > 100 µM
- TGI [3]: > 100 µM
- TGI [4]: > 100 µM
- TGI [5]: > 100 µM
- TGI [7]: > 100 µM
- TGI [8]: > 100 µM
- TGI [9]: > 100 µM
- TGI [10]: > 100 µM
- TGI [11]: > 100 µM
- TGI [13]: > 100 µM
- TGI [59]: > 100 µM
- TGI [14]: > 100 µM
- TGI [15]: > 100 µM
- TGI [16]: > 100 µM
- TGI [17]: > 100 µM
- TGI [18]: > 100 µM
- TGI [51]: > 100 µM
- TGI [20]: > 100 µM
- TGI [21]: > 100 µM
- TGI [52]: > 100 µM
- TGI [22]: > 100 µM
- TGI [23]: > 100 µM
- TGI [24]: > 100 µM
- TGI [25]: > 100 µM
- TGI [26]: > 100 µM
- TGI [53]: > 100 µM
- TGI [27]: > 100 µM
- TGI [29]: > 100 µM
- TGI [30]: > 100 µM
- TGI [31]: > 100 µM
- TGI [32]: > 100 µM
- TGI [33]: > 100 µM
- TGI [34]: > 100 µM
- TGI [36]: > 100 µM
- TGI [37]: > 100 µM
- TGI [57]: > 100 µM
- TGI [54]: > 100 µM
- TGI [58]: > 100 µM
- TGI [55]: > 100 µM
- TGI [38]: > 100 µM
- TGI [39]: > 100 µM
- TGI [40]: > 100 µM
- TGI [41]: > 100 µM
- TGI [42]: > 100 µM
- TGI [44]: > 100 µM
- TGI [45]: > 100 µM
- TGI [46]: > 100 µM
- TGI [47]: > 100 µM
- TGI [48]: > 100 µM
